From patent publication US12655125B2 (SIRONAX LTD., priority 2020, dated 2026) come the findings set out here.

By EC50 is commonly meant the concentration at which the effect is half-maximal.

One assay relates to HT-29 cells. Kind of assay: HT29 Cells 0FBS Assay In Vitro (TNF-α/SMAC mimetic/zVAD-FMK induced necroptosis, CellTiter-Glo cell viability). It counts as cell-based. The conditions noted are these: Homo sapiens, HT-29, 20 h, read-out: Cell activity (EC50) of Compounds 1-116. A digest of the protocol: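 HT-29 cells (5,000/well, seeded overnight) in serum-free McCoy's 5A were stimulated with TNF-α 10 ng/ml, SMAC mimetic 6 μM and zVAD-FMK 10 μM to induce necroptosis. Compound added as 10-point 3-fold series for 20 h at 37° C. CellTiter-Glo luminescence gives viability; EC50 is geometric mean of duplicate dose-responses.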
A general note: In ATP-based viability assays light output follows the ATP content of the culture.
As to `CN(C)Cc1cnn(C)c1-c1cc(OC2CN(C(=O)N3N=CC[C@H]3c3cc(F)cc(F)c3)C2)c(F)cn1` [compound 79, (S)-(5-(3,5-difluorophenyl)-4,5-dihydro-1H-pyrazol-1-yl)(3-((2-(4-((dimethylamino)methyl)-1-methyl-1H-pyrazol-5-yl)-5-fluoropyridin-4-yl)oxy)azetidin-1-yl)methanone], the EC50 was in the range of 0.1 to 100 nM.

The assay is the same for the next values; noted with them: Homo sapiens; HT-29 cells, FBS free medium, TNF-α (10 ng/ml), SMAC mimetic (6 uM), zVAD-FMK (10 μM), 20 hours; geometric mean EC50; read-out: Cell activity (EC50) of Compounds 1-116.
Consider `CC(=O)Nc1cnn(C)c1-c1cc(OC2CN(C(=O)N3N=CC[C@H]3c3cc(F)cc(F)c3)C2)c(F)cn1` [compound 57, (S)—N-(5-(4-((1-(5-(3,5-difluorophenyl)-4,5-dihydro-1H-pyrazole-1-carbonyl)azetidin-3-yl)oxy)-5-fluoropyridin-2-yl)-1-methyl-1H-pyrazol-4-yl)acetamide], for which the EC50 was 0.1 to 100 nM.

Turning to `CCC(=O)Nc1cnn(C)c1-c1cc(OC2CN(C(=O)N3N=CC[C@H]3c3cc(F)cc(F)c3)C2)c(F)cn1` [compound 58, (S)—N-(5-(4-((1-(5-(3,5-difluorophenyl)-4,5-dihydro-1H-pyrazole-1-carbonyl)azetidin-3-yl)oxy)-5-fluoropyridin-2-yl)-1-methyl-1H-pyrazol-4-yl)propionamide], the concentration giving a half-maximal response (EC50) lay in the range of 0.1 to 100 nM.

`CC(C)C(=O)Nc1cnn(C)c1-c1cc(OC2CN(C(=O)N3N=CC[C@H]3c3cc(F)cc(F)c3)C2)c(F)cn1` [compound 59, (S)—N-(5-(4-((1-(5-(3,5-difluorophenyl)-4,5-dihydro-1H-pyrazole-1-carbonyl)azetidin-3-yl)oxy)-5-fluoropyridin-2-yl)-1-methyl-1H-pyrazol-4-yl)isobutyramide]: the 50% effective concentration (EC50) is 0.1 to 100 nM.

`CC(C)CC(=O)Nc1cnn(C)c1-c1cc(OC2CN(C(=O)N3N=CC[C@H]3c3cc(F)cc(F)c3)C2)c(F)cn1` [compound 60, (S)—N-(5-(4-((1-(5-(3,5-difluorophenyl)-4,5-dihydro-1H-pyrazole-1-carbonyl)azetidin-3-yl)oxy)-5-fluoropyridin-2-yl)-1-methyl-1H-pyrazol-4-yl)-3-methylbutanamide]: the half-maximal effective concentration (EC50) was 0.1 to 100 nM.

As to `CNC(=O)CNc1cnn(C)c1-c1cc(OC2CN(C(=O)N3N=CC[C@H]3c3cc(F)cc(F)c3)C2)c(F)cn1` [compound 61, (S)-2-((5-(4-((1-(5-(3,5-difluorophenyl)-4,5-dihydro-1H-pyrazole-1-carbonyl)azetidin-3-yl)oxy)-5-fluoropyridin-2-yl)-1-methyl-1H-pyrazol-4-yl)amino)-N-methylacetamide], the EC50 lay in the range of 0.1 to 100 nM.

As for `Cn1ncc(NCC(=O)N2CCOCC2)c1-c1cc(OC2CN(C(=O)N3N=CC[C@H]3c3cc(F)cc(F)c3)C2)c(F)cn1` [compound 62, (S)-2-((5-(4-((1-(5-(3,5-difluorophenyl)-4,5-dihydro-1H-pyrazole-1-carbonyl)azetidin-3-yl)oxy)-5-fluoropyridin-2-yl)-1-methyl-1H-pyrazol-4-yl)amino)-1-morpholinoethan-1-one], the concentration giving a half-maximal response (EC50) was 0.1 to 100 nM.

As for `CN(C)C(=O)CNc1cnn(C)c1-c1cc(OC2CN(C(=O)N3N=CC[C@H]3c3cc(F)cc(F)c3)C2)c(F)cn1` [compound 63, (S)-2-((5-(4-((1-(5-(3,5-difluorophenyl)-4,5-dihydro-1H-pyrazole-1-carbonyl)azetidin-3-yl)oxy)-5-fluoropyridin-2-yl)-1-methyl-1H-pyrazol-4-yl)amino)-N,N-dimethylacetamide], the EC50 lay in the range of 0.1 to 100 nM.

As to `COC(=O)c1cnn(C)c1-c1cc(OC2CN(C(=O)N3N=CC[C@H]3c3cc(F)cc(F)c3)C2)c(F)cn1` [compound 64, methyl (S)-5-(4-((1-(5-(3,5-difluorophenyl)-4,5-dihydro-1H-pyrazole-1-carbonyl)azetidin-3-yl)oxy)-5-fluoropyridin-2-yl)-1-methyl-1H-pyrazole-4-carboxylate], the EC50 fell in the range of 0.1 to 100 nM.

As to `Cn1ncc(C(=O)O)c1-c1cc(OC2CN(C(=O)N3N=CC[C@H]3c3cc(F)cc(F)c3)C2)c(F)cn1` [compound 65, (S)-5-(4-((1-(5-(3,5-difluorophenyl)-4,5-dihydro-1H-pyrazole-1-carbonyl)azetidin-3-yl)oxy)-5-fluoropyridin-2-yl)-1-methyl-1H-pyrazole-4-carboxylic acid], the concentration for a half-maximal effect (EC50) was 1000 to 10000 nM.

Turning to `Cn1ncc(C(N)=O)c1-c1cc(OC2CN(C(=O)N3N=CC[C@H]3c3cc(F)cc(F)c3)C2)c(F)cn1` [compound 66, (S)-5-(4-((1-(5-(3,5-difluorophenyl)-4,5-dihydro-1H-pyrazole-1-carbonyl)azetidin-3-yl)oxy)-5-fluoropyridin-2-yl)-1-methyl-1H-pyrazole-4-carboxamide], the EC50 is 0.1 to 100 nM.

On to `CNC(=O)c1cnn(C)c1-c1cc(OC2CN(C(=O)N3N=CC[C@H]3c3cc(F)cc(F)c3)C2)c(F)cn1` [compound 67, (S)-5-(4-((1-(5-(3,5-difluorophenyl)-4,5-dihydro-1H-pyrazole-1-carbonyl)azetidin-3-yl)oxy)-5-fluoropyridin-2-yl)-N,1-dimethyl-1H-pyrazole-4-carboxamide], for which the EC50 lay in the range of 0.1 to 100 nM.

Regarding `CN(C)C(=O)c1cnn(C)c1-c1cc(OC2CN(C(=O)N3N=CC[C@H]3c3cc(F)cc(F)c3)C2)c(F)cn1` [compound 68, (S)-5-(4-((1-(5-(3,5-difluorophenyl)-4,5-dihydro-1H-pyrazole-1-carbonyl)azetidin-3-yl)oxy)-5-fluoropyridin-2-yl)-N,N,1-trimethyl-1H-pyrazole-4-carboxamide], the concentration giving a half-maximal response (EC50) fell in the range of 1000 to 10000 nM.

Regarding `CN(C)CCNC(=O)c1cnn(C)c1-c1cc(OC2CN(C(=O)N3N=CC[C@H]3c3cc(F)cc(F)c3)C2)c(F)cn1` [compound 69, (S)-5-(4-((1-(5-(3,5-difluorophenyl)-4,5-dihydro-1H-pyrazole-1-carbonyl)azetidin-3-yl)oxy)-5-fluoropyridin-2-yl)-N-(2-(dimethylamino)ethyl)-1-methyl-1H-pyrazole-4-carboxamide], the EC50 lay in the range of 100 to 1000 nM.

Consider `CC(C)CNC(=O)c1cnn(C)c1-c1cc(OC2CN(C(=O)N3N=CC[C@H]3c3cc(F)cc(F)c3)C2)c(F)cn1` [compound 70, (S)-5-(4-((1-(5-(3,5-difluorophenyl)-4,5-dihydro-1H-pyrazole-1-carbonyl)azetidin-3-yl)oxy)-5-fluoropyridin-2-yl)-N-isobutyl-1-methyl-1H-pyrazole-4-carboxamide], for which the EC50 lay within 0.1 to 100 nM.

As to `CCNC(=O)c1cnn(C)c1-c1cc(OC2CN(C(=O)N3N=CC[C@H]3c3cc(F)cc(F)c3)C2)c(F)cn1` [compound 71, (S)-5-(4-((1-(5-(3,5-difluorophenyl)-4,5-dihydro-1H-pyrazole-1-carbonyl)azetidin-3-yl)oxy)-5-fluoropyridin-2-yl)-N-ethyl-1-methyl-1H-pyrazole-4-carboxamide], the EC50 lay within 0.1 to 100 nM.

As to `Cn1ncc(C(=O)N2CCC2)c1-c1cc(OC2CN(C(=O)N3N=CC[C@H]3c3cc(F)cc(F)c3)C2)c(F)cn1` [compound 72, (S)-azetidin-1-yl(5-(4-((1-(5-(3,5-difluorophenyl)-4,5-dihydro-1H-pyrazole-1-carbonyl)azetidin-3-yl)oxy)-5-fluoropyridin-2-yl)-1-methyl-1H-pyrazol-4-yl)methanone], the EC50 fell in the range of 100 to 1000 nM.

Take `Cn1ncc(C(=O)N2CC(O)C2)c1-c1cc(OC2CN(C(=O)N3N=CC[C@H]3c3cc(F)cc(F)c3)C2)c(F)cn1` [compound 73, (S)-(5-(3,5-difluorophenyl)-4,5-dihydro-1H-pyrazol-1-yl)(3-((5-fluoro-2-(4-(3-hydroxyazetidine-1-carbonyl)-1-methyl-1H-pyrazol-5-yl)pyridin-4-yl)oxy)azetidin-1-yl)methanone]: the EC50 lay in the range of 100 to 1000 nM.

On to `COC1CN(C(=O)c2cnn(C)c2-c2cc(OC3CN(C(=O)N4N=CC[C@H]4c4cc(F)cc(F)c4)C3)c(F)cn2)C1` [compound 74, (S)-(5-(3,5-difluorophenyl)-4,5-dihydro-1H-pyrazol-1-yl)(3-((5-fluoro-2-(4-(3-methoxyazetidine-1-carbonyl)-1-methyl-1H-pyrazol-5-yl)pyridin-4-yl)oxy)azetidin-1-yl)methanone], for which the EC50 fell in the range of 100 to 1000 nM.

`Cn1ncc(C(=O)N2CCCC2)c1-c1cc(OC2CN(C(=O)N3N=CC[C@H]3c3cc(F)cc(F)c3)C2)c(F)cn1` [compound 75, (S)-(5-(3,5-difluorophenyl)-4,5-dihydro-1H-pyrazol-1-yl)(3-((5-fluoro-2-(1-methyl-4-(pyrrolidine-1-carbonyl)-1H-pyrazol-5-yl)pyridin-4-yl)oxy)azetidin-1-yl)methanone]: the EC50 was 1000 to 10000 nM.

With `Cn1ncc(C(=O)N2CCCCC2)c1-c1cc(OC2CN(C(=O)N3N=CC[C@H]3c3cc(F)cc(F)c3)C2)c(F)cn1` [compound 76, (S)-(5-(3,5-difluorophenyl)-4,5-dihydro-1H-pyrazol-1-yl)(3-((5-fluoro-2-(1-methyl-4-(piperidine-1-carbonyl)-1H-pyrazol-5-yl)pyridin-4-yl)oxy)azetidin-1-yl)methanone], the EC50 fell in the range of 1000 to 10000 nM.

With `Cn1ncc(C(=O)N2CCOCC2)c1-c1cc(OC2CN(C(=O)N3N=CC[C@H]3c3cc(F)cc(F)c3)C2)c(F)cn1` [compound 77, (S)-(5-(3,5-difluorophenyl)-4,5-dihydro-1H-pyrazol-1-yl)(3-((5-fluoro-2-(1-methyl-4-(morpholine-4-carbonyl)-1H-pyrazol-5-yl)pyridin-4-yl)oxy)azetidin-1-yl)methanone], the EC50 was in the range of 1000 to 10000 nM.

Regarding `Cn1ncc(CO)c1-c1cc(OC2CN(C(=O)N3N=CC[C@H]3c3cc(F)cc(F)c3)C2)c(F)cn1` [compound 78, (S)-(5-(3,5-difluorophenyl)-4,5-dihydro-1H-pyrazol-1-yl)(3-((5-fluoro-2-(4-(hydroxymethyl)-1-methyl-1H-pyrazol-5-yl)pyridin-4-yl)oxy)azetidin-1-yl)methanone], the EC50 lay within 0.1 to 100 nM.
